Here are results for three compounds from article PMC6069109, “An Aspartate-Specific Solute-Binding Protein Regulates Protein Kinase G Activity To Control Glutamate Metabolism in Mycobacteria” (mBio, 2018).

Holding throughout (format): binding
In assay [1] the target is T1, GlnH (Mycobacterium tuberculosis, UniProt P96257). In words: crystal structure, thermal melt shift.
For assay [2], the target named is T2, C. glutamicum GlnH (GlnHcg) (Corynebacterium glutamicum, UniProt Q8NM30).
T2 construct: gene Cgl2750; soluble domain, N-terminal His6 tag
In words: intrinsic tryptophan fluorescence, thermal melt shift.

For assay [3], the target named is T1, GlnH. In words: crystal structure, ITC, thermal melt shift.

Read-outs that look alike come from different tables or passages of the source.

T1 sequence (P96257 27-328 limits assumed): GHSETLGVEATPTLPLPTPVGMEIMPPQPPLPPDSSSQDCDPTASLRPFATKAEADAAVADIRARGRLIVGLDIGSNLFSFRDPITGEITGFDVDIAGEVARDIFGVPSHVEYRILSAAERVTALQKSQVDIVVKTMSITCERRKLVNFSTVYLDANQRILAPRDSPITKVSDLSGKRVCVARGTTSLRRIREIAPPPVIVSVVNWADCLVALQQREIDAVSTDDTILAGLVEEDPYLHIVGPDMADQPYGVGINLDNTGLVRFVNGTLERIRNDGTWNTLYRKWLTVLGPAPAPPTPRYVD
T2 sequence (Q8NM30 entry or part of it): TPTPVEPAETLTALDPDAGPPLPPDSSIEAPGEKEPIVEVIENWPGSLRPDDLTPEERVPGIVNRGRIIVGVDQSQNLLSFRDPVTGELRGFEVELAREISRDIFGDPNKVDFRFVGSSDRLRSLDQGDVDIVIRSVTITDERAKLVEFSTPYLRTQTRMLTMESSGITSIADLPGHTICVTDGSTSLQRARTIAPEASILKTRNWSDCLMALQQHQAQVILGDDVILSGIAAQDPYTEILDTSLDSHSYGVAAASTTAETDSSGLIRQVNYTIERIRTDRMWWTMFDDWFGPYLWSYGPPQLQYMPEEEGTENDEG

Consider `NC(=O)C[C@H](N)C(=O)O` [asparagine], for which the “crystal structure, thermal melt shift” value at GlnH [1] is 6H1U (GlnH with Asp), 6H20 (GlnH with Asn), and 6H2T (GlnH with Glu).

For the compound `N[C@@H](CC(=O)O)C(=O)O` [aspartate], the results for the Kd (in assay [2] (read-out: Kd (μM)^a); on GlnH [3] (read-out: Kd (μM)^a)) were 550 ± 90 µM and 4.8 ± 0.6 µM, respectively.

Turning to `N[C@@H](CCC(=O)O)C(=O)O` [glutamate], the Kd – broadly, the free concentration of one partner at which half of the binding sites on the other are occupied at equilibrium, for simple one-to-one binding – came out at 2060 µM in assay [2] and 15.2 ± 5.7 µM at GlnH [3].
